Reference: patent US20120263739A1, “ANTI INTEGRIN ANTIBODIES LINKED TO NANOPARTICLES LOADED WITH CHEMOTHERAPEUTIC AGENTS” (MERCK PATENT GMBH, priority 2009, published 2012)

How the values were obtained:
[1] = system: αv-defective melanoma cells M21L; assay: Cellular binding of nanoparticulate formulations, flow cytometry (FACS); format: cell-based; details: 2 ng/μl, 4 h at 37° C.
Description: (§1) Cellular binding: αvβ3 integrin-positive melanoma cells M21 and αv-negative melanoma cells M21L are incubated with DI17E6-coupled nanoparticles (NP-DI17E6) or nanoparticles coupled to an unspecific control mAb IgG (NP-IgG). […] Both nanoparticle preparations show low binding to M21L cells (FIG. 4D).
(§2) FIG. 4: Cellular binding of unloaded and doxorubicin loaded nanoparticulate formulations. αvβ3 integrin positive melanoma cells M21 (A and C) and αv-defective melanoma cells M21L (B and D) were treated with 2 ng/μl of the different unloaded (A and B) or doxorubicin loaded (C and D) nanoparticulate formulations for 4 h at 37° C. (concentrations are calculated referred to DI17E6 or equivalent NP amounts). Flow cytometry (FACS) analysis was performed to quantify their cellular binding. The data is shown as histogram of the FL1-H-channel (autofluorescence of the nanoparticles). Green: NP-DI17E6 and NP-Dox-DI17E6 respectively, red: NP-IgG and NP-Dox-IgG respectively, blue: untreated control. […]
(§3) M21 or M21L cells were cultured in 24-well plates (Greiner, Frickenhausen, Germany) and treated with the different nanoparticle formulations for 4 h at 37° C. […] Control nanoparticles without DI17E6 modification were used in equivalent nanoparticle quantities. […] Nanoparticles could be detected at 488/520 nm.

[2] = system: αvβ3 integrin positive melanoma cells M21; assay: as above; format: cell-based; details: 2 ng/μl, 4 h at 37° C.
Description: as §1, §2, §3

M21 cells = assay: Cellular uptake and intracellular distribution, confocal laser scanning microscopy; format: cell-based; details: 10 ng/μl, 4 h at 37° C., CLSM
Description: Cellular uptake and intracellular distribution: The cellular uptake and intracellular distribution of these nanoparticulate formulations are shown by confocal laser scanning microscopy (CLSM). αvβ3 integrin-positive M21 melanoma cells are incubated with NP-Dox-DI17E6, with NP-Dox-IgG, or free Doxorubicin (FIG. 5). […] The overlay of the different fluorescence channels (FIG. 6B-D) verifies the intracellular uptake of NP-Dox-DI17E6 (FIG. 6A).
FIG. 5: Cellular uptake and intracellular distribution of nanoparticles studied by confocal laser scanning microscopy (CLSM). M21 cells were cultured on glass slides and treated with 10 ng/μl of the different nanoparticle formulations (referred to DI17E6 concentration or equivalent amount of control nanoparticles) for 4 h at 37° C. The green autofluorescence of the nanoparticles was used for detection and the red autofluorescence of doxorubicin. The cell membranes were stained with Concanavalin A AlexaFluor 350 (blue). Pictures were taken within inner sections of the cells. […]
Cellular uptake and intracellular distribution of the nanoparticles were studied by confocal laser scanning microscopy. […] (concentrations are calculated referred to DI17E6 or equivalent NP amounts as described in 2.5). […] Nanoparticles were detected at 488/520 nm. Doxorubicin was detected by red fluorescence at 488/590 nm.

[3] = system: αvβ3 integrin positive melanoma cells M21; assay: Cell detachment from vitronectin coated surface; format: cell-based; details: 4 ng/μl, 4 h at 37° C.
Description: FIG. 9: Cell detachment from vitronectin coated surface. For cell detachment assay, 96-well ELISA plates were coated with vitronectin and cells were allowed to attach and spread for 1 h. Then, 4 ng/μl of free DI17E6 or the different unloaded or doxorubicin nanoparticulate formulations were added and the plates were incubated for additional 4 h at 37° C. to induce detachment (concentrations are calculated referred to DI17E6 or equivalent NP amounts). Detached cells were removed and remaining attached cells were stained with CyQUANT GR and counted against untreated control as described in the manufacturer's instructions manual. (Internal control of each experiment n=10, one representative experiment out of 9 independent experiments is shown.)
For cell detachment assays, 96-well ELISA plates were coated with vitronectin as described above. After blocking, cells were allowed to attach and spread for 1 h in cell adhesion medium. Then, 4 ng/μl or 10 ng/μl of either free DI17E6 or the different nanoparticulate formulations (referred to free mAb) were added and the plates were incubated for additional 4 h at 37° C. to induce detachment. Subsequently, plates were washed and processed as for cell adhesion assay. Specific inhibition of attachment or induction of detachment were determined relative to vitronectin-coated surfaces blocked with BSA.

[4] = Particle diameter and polydispersity by photon correlation spectroscopy; format: physicochemical; details: mean ± SD; n = 3; 100% crosslinking
Description: (§4) Nanoparticles were analyzed with regard to particle diameter and polydispersity by photon correlation spectroscopy (PCS) using a Malvern Zetasizer 3000HSA (Malvern Instruments Ltd., Malvern, UK). The zetapotential was measured with the same instrument by Laser Doppler microelectrophoresis. Prior to both measurements the samples were diluted with filtered (0.22 μm) purified water. Particle content was determined by microgravimetry. For this purpose 50.0 μl of the nanoparticle suspension was pipetted into an aluminium weighing dish and dried for 2 h at 80° C. After 30 min of storage in an exsiccator the samples were weighed on a micro balance (Sartorius, Germany).

[5] = Zetapotential by Laser Doppler microelectrophoresis; format: physicochemical; details: mean ± SD; n = 3; 100% crosslinking
Description: as §4

[6] = Particle content by microgravimetry; format: physicochemical; details: mean ± SD; n = 3; 100% crosslinking
Description: as §4

[7] = system: αvβ3-positive M21 melanoma cells; assay: MTT cell viability assay; details: MTT, reduce cell viability by 50%, M21 cells
Description: Cell viability was assessed using the 3-(4,5-dimethylthiazol-2-yl)-2,5-diphenyltetrazolium bromide (MTT) dye reduction assay [27] modified as described before [28].

NP-Dox-DI17E6
Cellular binding to M21L cells [1]: low binding
Cellular binding to M21 cells [2]: high binding
Cellular uptake and intracellular distribution (M21 cells): reaches the inner part of the cells
Cell detachment from vitronectin coated surfaces [3]: same detachment efficiency
Particle diameter [4]: 404.9 ± 27.0 nm
Polydispersity [4]: 0.040 ± 0.045
Zetapotential [5]: −40.3 ± 3.1 mV
Particle content [6]: 14.4 ± 1.2 mg/mL
IC-50 M21 [7]: 8.0 ± 0.2 ng/mL
